Data from patent publication US10954252B1, “Inhibitors of human immunodeficiency virus replication” (ViiV HEALTHCARE UK (NO.5) LIMITED, priority 2017, dated 2021).

Columns and labels:
[1] = test system: recombinant NL4-3 virus (nef section replaced with Renilla luciferase gene) in MT-2 cells; test: HIV cell culture assay (antiviral activity, luciferase readout); type: cell-based; conditions: MT-2 cells infected for 4-5 days with recombinant NL4-3 luciferase virus
Procedure, shortened: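 Serially diluted compounds were present throughout a 4-5 day infection of MT-2 cells by recombinant NL4-3 whose nef region partly encodes Renilla luciferase. Antiviral activity was taken from live-cell luciferase signal, with the 50% effective concentration fitted by the exponential median effect equation.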

[2] = Compound cytotoxicity, XTT-based colorimetric assay; type: cell-based; conditions: human, uninfected MT2 cells
Procedure, shortened: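 XTT colorimetric read-out on day 4 gave CC50 values, using MT2 cells left uninfected but otherwise handled as in the antiviral assay.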

| Structure (SMILES) | EC50 ([1]; Renilla, NL43, Table 1a) [nM] | CC50 at 4 days ([2]; Table 1a, day 4, XTT) [µM] | CC50 at 4 days ([2]; Table 1, day 4, XTT) [µM] | EC50 ([1]; Renilla, NL43, Table 1) [nM] | other results |
| --- | --- | --- | --- | --- | --- |
| Cn1nc(NS(C)(=O)=O)c2c(Cl)ccc(-c3nc4ccccc4nc3[C@H](Cc3cc(F)cc(F)c3)NC(=O)Cn3nc(C(F)F)c4c3C(F)(F)[C@@H]3C[C@H]43)c21 [Example 154, N—((S)-1-(3-(4-chloro-1-methyl-3-(methylsulfonamido)-1H-indazol-7-yl)quinoxalin-2-yl)-2-(3,5-difluorophenyl)ethyl)-2-((3bS,4aR)-3-(difluoromethyl)-5,5-difluoro-3b,4,4a,5-tetrahydro-1H-cyclopropa[3,4]cyclopenta[1,2-c]pyrazol-1-yl)acetamide] | 0.43 | > 10 |  |  |  |
| Cc1cccc2c(=O)n(-c3ccc(Cl)c4c(NS(C)(=O)=O)nn(C)c34)c([C@H](Cc3cc(F)cc(F)c3)NC(=O)Cn3nc(C(F)F)c4c3C(F)(F)[C@@H]3C[C@H]43)nc12 (single isomer, unassigned) [Example 97] |  | > 1 |  |  | EC50 ([1]; Table 1a): 30.6 nM |
| O=C(Cc1c[nH]c2ccc(O)cc12)NC(Cc1cc(F)cc(F)c1)c1nc2cn[nH]c2cc1-c1ccc2scnc2c1 (single isomer, unassigned) [Example 3.3, N-(1-(6-(benzo[d]thiazol-5-yl)-1H-pyrazolo[4,3-b]pyridin-5-yl)-2-(3,5-difluorophenyl)ethyl)-2-(5-hydroxy-1H-indol-3-yl)acetamide] |  |  | 42.4 |  | EC50 ([1]; Table 1): 5.7 nM |
| Cn1nc(NS(C)(=O)=O)c2c(Cl)ccc(-c3cc4cc[nH]c4nc3[C@H](Cc3cc(F)cc(F)c3)NC(=O)Cn3nc(C(F)F)c4c3C(F)(F)[C@@H]3C[C@H]43)c21 (single isomer, unassigned) [Example 84] | 0.94 | > 10 |  |  |  |
| COc1c(F)cc2c(=O)n(-c3ccc(Cl)c4c(NS(C)(=O)=O)nn(C)c34)c([C@H](Cc3cc(F)cc(F)c3)NC(=O)Cn3nc(C(F)F)c4c3C(F)(F)[C@@H]3C[C@H]43)nc2c1F (mixture of isomers) [Example 114] | 0.071 | > 1 |  |  |  |
| COc1ccc2c(=O)n(-c3ccc(Cl)c4c(NS(C)(=O)=O)nn(C)c34)c(C(Cc3cc(F)cc(F)c3)NC(=O)Cn3nc(C(F)F)c4c3C(F)(F)C3CC43)nc2n1 (stereo in doubt) [Example 13.1, N—((S)-1-(3-(4-chloro-1-methyl-3-(methylsulfonamido)-1H-indazol-7-yl)-7-methoxy-4-oxo-3,4-dihydropyrido[2,3-d]pyrimidin-2-yl)-2-(3,5-difluorophenyl)ethyl)-2-((3bS,4aR)-3-(difluoromethyl)-5,5-difluoro-3b,4,4a,5-tetrahydro-1H-cyclopropa[3,4]cyclopenta[1,2-c]pyrazol-1-yl)acetamide] |  |  | > 10 | 14300 |  |
| CS(=O)(=O)Nc1nn(CC(F)F)c2c(-n3c([C@H](Cc4cc(F)cc(F)c4)NC(=O)Cn4nc(C(F)F)c5c4C(F)(F)[C@@H]4C[C@H]54)nc4ncccc4c3=O)ccc(Cl)c12 (single isomer, unassigned) [Example 44.1] | 0.049 | > 10 |  |  |  |
| O=C(Cn1nc(C(F)F)c2c1C(F)(F)[C@@H]1C[C@H]21)N[C@@H](Cc1cc(F)cc(F)c1)c1nc2cn[nH]c2cc1-c1ccc(F)c(C(=O)NS(=O)(=O)C2CC2)c1 [Example 10.28, N-(cyclopropylsulfonyl)-5-(5-((S)-1-(2-((3bS,4aR)-3-(difluoromethyl)-5,5-difluoro-3b,4,4a,5-tetrahydro-1H-cyclopropa[3,4]cyclopenta[1,2-c]pyrazol-1-yl)acetamido)-2-(3,5-difluorophenyl)ethyl)-1H-pyrazolo[4,3-b]pyridin-6-yl)-2-fluorobenzamide] |  |  | > 10 | 510 |  |
| CC(C)c1ccc(-c2c(C(Cc3cc(F)cc(F)c3)NC(=O)Cn3nc(C(F)F)c4c3C(F)(F)[C@@H]3C[C@H]43)ncc3[nH]ncc23)cn1 (mixture of isomers) [Example 10.1] |  |  | > 10 | 140 |  |
| Cn1nc(NS(C)(=O)=O)c2c(Cl)ccc(-n3c([C@H](Cc4cc(F)cc(F)c4)NC(=O)Cn4nc(C(F)F)c5c4C(F)(F)[C@@H]4C[C@H]54)nc4cccc(F)c4c3=O)c21 (single isomer, unassigned) [Example 19] |  |  | > 8 | 130 |  |
